{"source": "patent EP0657459A1", "about": "“Thienothiazine derivates, process for their preparation and their use as anti-inflammatory and analgesic agents” (Chemisch Pharmazeutische Forschungsgesellschaft m.b.H., priority 1993, dated 1995)", "key": {"Cyclooxygenase": {"system": "Cyclooxygenase", "experiment": "Formation of prostaglandin D2 by neutrophils as measure of cyclooxygenase activity (A23187 stimulation, RIA)", "assay_type": "cell-based, Sprague Dawley Ratten", "description": "(§1) Die Bildung von Prostaglandin D2 durch Neutrophile wurde als Maß für die Cyclooxygenase-Aktivität verwendet und die Bildung von Leukotrien B4 als Maß für die 5-Lipoxygenase-Aktivität. Männlichen Sprague Dawley Ratten (250-300 g) wurde lamda - Carrageenan 1 mg intraperitoneal (gelöst in 0.5 ml dest. Wasser) injiziert. Nach 16 Stunden wurden die Ratten durch Exposition in Diethylether getötet. 15 ml eiskalte Hanks balanced salt solution (HBSS) wurden i.p. injiziert, die Neutrophilen durch Absaugen geerntet (10 ml), zentrifugiert (5 min, 100g, 4°C), die überstehende Lösung dekantiert und die Zellen in HBSS resuspendiert bei 4 °C bis zu einer Konzentration von 5x10⁶ Zellen/ml. 400 µl Zellsuspension (2x10⁶ Zellen), 0,5µl Verbindung gelöst in DMSO und 49,5 µl HBSS wurden 5 min bei 37°C inkubiert. Dann wurden 50 µl A23187 (2µmol/l Endkonzentration) zugefügt und anschließend wiederum 5 min bei 37°C inkubiert. Die Reaktion wurde durch Zentrifugieren 10000g, 3s gestoppt und die überstehende Flüssigkeit in vorgekühlte Plastikröhrchen übergeführt und vor dem Beginn der Radioimmunoassay-Messung im Eisbad max. 1 h belassen. PGD2 und LTB4 wurde nach Verdünnung mit HBSS mit Hilfe kommerzieller RIA-Kits gemessen. Als Vergleichssubstanz diente 6-Chlor-4-hydroxy-2-methyl-N-(2-pyridyl)-2H-thieno(2,3-e)1,2-thiazin-3carboxamid-1,1-dioxid (\"Lornoxicam\", Vbg.A)"}, "5-Lipoxygenase": {"target": "T1, 5-Lipoxygenase (Rattus norvegicus, UniProt P12527)", "T1 sequence (P12527 1-673)": "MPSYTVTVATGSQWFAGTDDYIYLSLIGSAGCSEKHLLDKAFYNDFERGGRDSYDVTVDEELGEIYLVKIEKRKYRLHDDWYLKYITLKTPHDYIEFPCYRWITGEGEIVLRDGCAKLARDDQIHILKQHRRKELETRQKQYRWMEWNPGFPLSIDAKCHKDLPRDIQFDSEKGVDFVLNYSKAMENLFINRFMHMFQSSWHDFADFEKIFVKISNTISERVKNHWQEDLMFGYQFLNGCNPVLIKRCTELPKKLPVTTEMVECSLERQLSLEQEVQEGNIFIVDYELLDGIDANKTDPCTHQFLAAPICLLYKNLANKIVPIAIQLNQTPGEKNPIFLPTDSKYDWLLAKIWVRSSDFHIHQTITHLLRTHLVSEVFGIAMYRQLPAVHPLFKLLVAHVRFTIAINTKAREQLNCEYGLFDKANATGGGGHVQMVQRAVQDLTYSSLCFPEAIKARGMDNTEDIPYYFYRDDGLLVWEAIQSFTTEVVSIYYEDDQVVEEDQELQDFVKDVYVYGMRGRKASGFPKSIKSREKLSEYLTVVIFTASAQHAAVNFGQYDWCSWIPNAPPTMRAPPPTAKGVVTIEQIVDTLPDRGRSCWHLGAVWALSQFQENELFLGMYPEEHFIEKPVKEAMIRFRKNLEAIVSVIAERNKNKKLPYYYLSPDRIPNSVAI", "experiment": "Formation of leukotriene B4 by neutrophils as measure of 5-lipoxygenase activity (A23187 stimulation, RIA)", "assay_type": "cell-based, Sprague Dawley Ratten", "description": "as §1"}, "[1]": {"conditions": "read-out: IC50 (µmol/l) PGD2, rat peritoneal neutrophils (carrageenan-elicited), 2x10⁶ cells, A23187 2 µmol/l, 5 min 37°C"}, "[2]": {"conditions": "rat peritoneal neutrophils (carrageenan-elicited), 2x10⁶ cells, A23187 2 µmol/l, 5 min 37°C, LTB4 by RIA, read-out: IC50 (µmol/l) LTB4"}}, "note": "Where two headings read alike, the source gives them in different places.", "data": [{"smiles": "CN1C(C(=O)Nc2cccc(-c3ccc(-c4ccccc4)cc3)n2)=C(O)c2sc(Cl)cc2S1(=O)=O", "note": "[Vbg 2, N-[6-(4-Biphenyl)-2-pyridinyl]-6-chlor-4-hydroxy-2-methyl-2H-thieno[2,3-e][1,2]thiazin-3-carboxamid-1,1-dioxid]", "values": [{"measurement": "IC50", "setting": "Cyclooxygenase; [1]", "result": 3.5, "unit": "µmol/L"}, {"measurement": "IC50", "setting": "5-Lipoxygenase", "result": 1.4, "unit": "µmol/L"}]}, {"smiles": "CN1C(C(=O)Nc2cccc(-c3cc4ccccc4s3)n2)=C(O)c2sc(Cl)cc2S1(=O)=O", "note": "[Vbg 1, N-[6-(2-Benzo[b]thienyl)-2-pyridinyl]-6-chlor-4-hydrory-2-methyl-2H-thieno[2,3-e][1,2]thiazin-3-carboxamid-1,1-dioxid]", "values": [{"measurement": "IC50", "setting": "Cyclooxygenase; [1]", "result": 0.049, "unit": "µmol/L"}, {"measurement": "IC50", "setting": "5-Lipoxygenase; [2]", "result": 2, "unit": "µmol/L"}]}, {"smiles": "CN1C(C(=O)Nc2ccccn2)=C(O)c2sc(Cl)cc2S1(=O)=O", "note": "[A]", "values": [{"measurement": "IC50", "setting": "Cyclooxygenase; rat peritoneal neutrophils (carrageenan-elicited), 2x10⁶ cells, A23187 2 µmol/l, 5 min 37°C, PGD2 by RIA, read-out: IC50 (µmol/l) PGD2", "result": 0.02, "unit": "µmol/L"}, {"measurement": "IC50", "setting": "5-Lipoxygenase; [2]", "result": "> 10", "unit": "µmol/L"}]}, {"smiles": "CN1C(C(=O)Nc2cccc(-c3cccc(Oc4ccc(F)cc4)c3)n2)=C(O)c2sc(Cl)cc2S1(=O)=O", "note": "[Vbg 3, 6-Chlor-N-{6-[3-(4-fluorphenoxy)phenyl]-2-pyridinyl}-4-hydroxy-2-methyl-2H-thieno[2,3-e]-1,2-thiazin-3-carboxamid-1,1-dioxid]", "values": [{"measurement": "IC50", "setting": "Cyclooxygenase; [1]", "result": 0.45, "unit": "µmol/L"}, {"measurement": "IC50", "setting": "5-Lipoxygenase; [2]", "result": 1.7, "unit": "µmol/L"}]}, {"smiles": "CN1C(C(=O)Nc2cccc(-c3ccc(Oc4ccc(F)cc4)o3)n2)=C(O)c2sc(Cl)cc2S1(=O)=O", "note": "[Vbg 4, 6-Chlor-N-{6-[5-(4-fluorphenoxy)-2-furyl]-2-pyridinyl}-4-hydroxy-2-methyl-2H-thieno[2,3-e]-1,2-thiazin-3-carboxamid-1,1-dioxid]", "values": [{"measurement": "IC50", "setting": "Cyclooxygenase; [1]", "result": 1.7, "unit": "µmol/L"}, {"measurement": "IC50", "setting": "5-Lipoxygenase; [2]", "result": 1.3, "unit": "µmol/L"}]}, {"smiles": "CN1C(C(=O)Nc2cccc(-c3cc4ccccc4o3)n2)=C(O)c2sc(Cl)c(Cl)c2S1(=O)=O", "note": "[Vbg 5, N-[6-(2-Benzo[b]furyl)-2-pyridinyl]-6,7-dichlor-4-hydroxy-2-methyl-2H-thieno-[2,3-e][1,2]thiazin-3-carboxamid-1,1-dioxid]", "values": [{"measurement": "IC50", "setting": "Cyclooxygenase; [1]", "result": 0.036, "unit": "µmol/L"}, {"measurement": "IC50", "setting": "5-Lipoxygenase; [2]", "result": 1.3, "unit": "µmol/L"}]}]}
